Data from patent publication US10294202B2, “Pyrrolidinones as herbicides” (FMC Corporation, priority 2013, dated 2019).

How the values were obtained:
corn [1] = assay: Test C pre-/postemergence herbicide test; format: in vivo, Zea mays
How it was run: (§1)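 Visual rating, 0 (no effect) to 100 (complete control), versus untreated controls after 13 to 15 days in the greenhouse. Pre: seeds in loam/sand, sprayed at planting. Post: 1- to 4-leaf plants (2 to 18 cm) in peat-based mix. Compounds in non-phytotoxic solvent plus surfactant.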

oat, wild = assay: Test C pre-/postemergence herbicide test; format: in vivo, Avena fatua; conditions: Postemergence
How it was run: as §1

barnyardgrass = assay: Test A pre-/postemergence herbicide test; format: in vivo, Echinochloa crus-galli
How it was run: (§2)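 Seeds sown in loam soil/sand blend received a preemergence directed soil spray of test chemical in non-phytotoxic solvent with surfactant; postemergence plants (2–10 cm, one- to two-leaf stage) were sprayed with the same formulation. After about 10 days in greenhouse, injury was rated visually versus untreated controls, 0 (no effect) to 100 (complete control).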

soybean = assay: Test C pre-/postemergence herbicide test; format: in vivo, Glycine max
How it was run: as §1

corn [2] = assay: Test A pre-/postemergence herbicide test; format: in vivo, Zea mays; conditions: Postemergence
How it was run: as §2

foxtail, giant = assay: Test C pre-/postemergence herbicide test; format: in vivo, Setaria faberii
How it was run: as §1

pigweed = assay: Test A pre-/postemergence herbicide test; format: in vivo, Amaranthus retroflexus
How it was run: as §2

galium = assay: Test C pre-/postemergence herbicide test; format: in vivo, Galium aparine
How it was run: as §1

ragweed = assay: Test C pre-/postemergence herbicide test; format: in vivo, Ambrosia elatior
How it was run: as §1

ryegrass, Italian = assay: Test C pre-/postemergence herbicide test; format: in vivo, Lolium multiflorum
How it was run: as §1

sedge, umbrella = assay: Test B flooded paddy test; format: in vivo, Cyperus difformis; conditions: 500 g ai/ha, Flood; scale of 0 to 100 where 0 is no effect and 100 is complete control
How it was run: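 Plants grown to 2-leaf stage; pots flooded 3 cm above soil and compound applied directly into paddy water, depth held throughout. Visual rating against untreated controls after 13 to 15 days in greenhouse, 0 (no effect) to 100 (complete control).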

[3] = Postemergence, 31 g ai/ha, scale 0 to 100 (0 no effect, 100 complete control)
[4] = Postemergence, 62 g ai/ha, scale 0 (no effect) to 100 (complete control)
[5] = Postemergence, 125 g ai/ha, scale 0 to 100 (0 no effect, 100 complete control)
[6] = Postemergence, 250 g ai/ha, scale 0 to 100 (0 no effect, 100 complete control)
[7] = Preemergence, 31 g ai/ha, scale 0 to 100, 0 is no effect and 100 is complete control
[8] = Preemergence, 62 g ai/ha, scale 0 to 100 (0 no effect, 100 complete control)
[9] = Preemergence, 125 g ai/ha, scale 0 to 100 (0 no effect, 100 complete control)
[10] = 31 g ai/ha, scale 0 to 100 (0 no effect, 100 complete control)
[11] = 62 g ai/ha, scale 0 (no effect) to 100 (complete control)
[12] = 125 g ai/ha, scale 0 to 100 (0 no effect, 100 complete control)
[13] = 250 g ai/ha, scale 0 to 100 (0 no effect, 100 complete control)
[14] = Postemergence, 125 g ai/ha, 0 to 100 scale, 0 is no effect, 100 is complete control
[15] = Postemergence, 500 g ai/ha, 0 to 100 scale (0 no effect, 100 complete control)
[16] = Preemergence, 125 g ai/ha, 0 to 100 scale where 0 is no effect and 100 is complete control
[17] = preemergence, 500 g ai/ha, 0 to 100 scale, 0 is no effect and 100 is complete control
[18] = 125 g ai/ha, 0 to 100 scale, 0 is no effect, 100 is complete control
[19] = 500 g ai/ha, 0 to 100 scale (0 no effect, 100 complete control)
[20] = Postemergence, 125 g ai/ha, visual rating on 0 to 100 scale (0 no effect, 100 complete control), approx. 10 days

O=C1NCC(c2cccc(Cl)c2)C1C(=O)Nc1cccc(F)c1F (racemic) [Compound 275]
Plant response rating, Corn (corn [1]; [3]): 0 | Plant response rating, Corn (corn [1]; [4]): 0 | Plant response rating, Corn (corn [1]; [5]): 0 | Plant response rating, Corn (corn [1]; [6]): 55 | Corn plant response rating (corn [1]; [7]): 0 | Corn plant response rating (corn [1]; [8]): 10 | Plant response rating, Corn (corn [1]; [9]): 75 | Plant response rating (scale of 0 to 100), Corn (corn [1]; Preemergence, 250 g ai/ha): 75 | Plant response rating, Oat, Wild (oat, wild; [10]): 0 | Plant response rating, Oat, Wild (oat, wild; [11]): 0 | Plant response rating, Oat, Wild (oat, wild; [12]): 0 | Plant response rating, Oat, Wild (oat, wild; [13]): 5 | Plant response rating, Barnyardgrass (barnyardgrass; [14]): 90 | Plant response rating, Barnyardgrass (barnyardgrass; [15]): 90 | Plant response rating, Barnyardgrass (barnyardgrass; [16]): 90 | Plant response rating, Barnyardgrass (barnyardgrass; [17]): 90 | Plant response rating, Soybean (soybean; [3]): 0 | Plant response rating, Soybean (soybean; [4]): 0 | Plant response rating, Soybean (soybean; [5]): 0 | Plant response rating, Soybean (soybean; [6]): 10 | Soybean plant response rating (soybean; [7]): 0 | Soybean plant response rating (soybean; [8]): 0 | Plant response rating, Soybean (soybean; [9]): 0 | Plant response rating (scale of 0 to 100), Soybean (soybean; Preemergence, 250 g ai/ha): 15 | Plant response rating, Corn (corn [2]; [18]): 40 | Plant response rating, Corn (corn [2]; [19]): 90 | Plant response rating, Foxtail, Giant (foxtail, giant; [3]): 10 | Plant response rating, Foxtail, Giant (foxtail, giant; [4]): 75 | Plant response rating, Foxtail, Giant (foxtail, giant; [5]): 35 | Plant response rating, Foxtail, Giant (foxtail, giant; [6]): 90 | Foxtail, Giant plant response rating (foxtail, giant; [7]): 90 | Foxtail, Giant plant response rating (foxtail, giant; [8]): 95 | Plant response rating, Foxtail, Giant (foxtail, giant; [9]): 98 | Plant response rating (scale of 0 to 100), Foxtail, Giant (foxtail, giant; Preemergence, 250 g ai/ha): 100 | Plant response rating, Pigweed (pigweed; [20]): 30 | Plant response rating, Pigweed (pigweed; [15]): 40 | Plant response rating, Pigweed (pigweed; [16]): 20 | Plant response rating, Pigweed (pigweed; [17]): 30 | Plant response rating, Galium (galium; [3]): 50 | Plant response rating, Galium (galium; [4]): 55 | Plant response rating, Galium (galium; [5]): 75 | Plant response rating, Galium (galium; [6]): 80 | Galium plant response rating (galium; [7]): 0 | Galium plant response rating (galium; [8]): 90 | Plant response rating, Galium (galium; [9]): 30 | Plant response rating (scale of 0 to 100), Galium (galium; Preemergence, 250 g ai/ha): 85 | Plant response rating, Ragweed (ragweed; [3]): 20 | Plant response rating, Ragweed (ragweed; [4]): 65 | Plant response rating, Ragweed (ragweed; [5]): 70 | Plant response rating, Ragweed (ragweed; [6]): 70 | Ragweed plant response rating (ragweed; [7]): 5 | Ragweed plant response rating (ragweed; [8]): 5 | Plant response rating, Ragweed (ragweed; [9]): 60 | Plant response rating (scale of 0 to 100), Ragweed (ragweed; Preemergence, 250 g ai/ha): 85 | Plant response rating, Ryegrass, Italian (ryegrass, Italian; [3]): 0 | Plant response rating, Ryegrass, Italian (ryegrass, Italian; [4]): 0 | Plant response rating, Ryegrass, Italian (ryegrass, Italian; [5]): 5 | Plant response rating, Ryegrass, Italian (ryegrass, Italian; [6]): 25 | Ryegrass, Italian plant response rating (ryegrass, Italian; [7]): 15 | Ryegrass, Italian plant response rating (ryegrass, Italian; [8]): 40 | Plant response rating, Ryegrass, Italian (ryegrass, Italian; [9]): 50 | Plant response rating (scale of 0 to 100), Ryegrass, Italian (ryegrass, Italian; Preemergence, 250 g ai/ha): 60 | Plant response rating, Sedge, Umbrella (sedge, umbrella): 30

O=C1NCC(c2cc(F)cc(F)c2)C1C(=O)Nc1ccc(F)cc1F (racemic) [Compound 278]
Plant response rating, Corn (corn [1]; [3]): 0 | Plant response rating, Corn (corn [1]; [4]): 0 | Plant response rating, Corn (corn [1]; [5]): 0 | Plant response rating, Corn (corn [1]; [6]): 0 | Corn plant response rating (corn [1]; [7]): 0 | Corn plant response rating (corn [1]; [8]): 0 | Plant response rating, Corn (corn [1]; [9]): 0 | Plant response rating (scale of 0 to 100), Corn (corn [1]; Preemergence, 250 g ai/ha): 5 | Plant response rating, Oat, Wild (oat, wild; [10]): 0 | Plant response rating, Oat, Wild (oat, wild; [11]): 0 | Plant response rating, Oat, Wild (oat, wild; [12]): 0 | Plant response rating, Oat, Wild (oat, wild; [13]): 0 | Plant response rating, Barnyardgrass (barnyardgrass; [14]): 80 | Plant response rating, Barnyardgrass (barnyardgrass; [15]): 90 | Plant response rating, Barnyardgrass (barnyardgrass; [16]): 80 | Plant response rating, Barnyardgrass (barnyardgrass; [17]): 90 | Plant response rating, Soybean (soybean; [3]): 50 | Plant response rating, Soybean (soybean; [4]): 55 | Plant response rating, Soybean (soybean; [5]): 40 | Plant response rating, Soybean (soybean; [6]): 15 | Soybean plant response rating (soybean; [7]): 0 | Soybean plant response rating (soybean; [8]): 0 | Plant response rating, Soybean (soybean; [9]): 10 | Plant response rating (scale of 0 to 100), Soybean (soybean; Preemergence, 250 g ai/ha): 10 | Plant response rating, Corn (corn [2]; [18]): 0 | Plant response rating, Corn (corn [2]; [19]): 0 | Plant response rating, Foxtail, Giant (foxtail, giant; [3]): 10 | Plant response rating, Foxtail, Giant (foxtail, giant; [4]): 10 | Plant response rating, Foxtail, Giant (foxtail, giant; [5]): 40 | Plant response rating, Foxtail, Giant (foxtail, giant; [6]): 75 | Foxtail, Giant plant response rating (foxtail, giant; [7]): 80 | Foxtail, Giant plant response rating (foxtail, giant; [8]): 90 | Plant response rating, Foxtail, Giant (foxtail, giant; [9]): 95 | Plant response rating (scale of 0 to 100), Foxtail, Giant (foxtail, giant; Preemergence, 250 g ai/ha): 100 | Plant response rating, Pigweed (pigweed; [20]): 0 | Plant response rating, Pigweed (pigweed; [15]): 10 | Plant response rating, Pigweed (pigweed; [16]): 0 | Plant response rating, Pigweed (pigweed; [17]): 0 | Plant response rating, Galium (galium; [3]): 0 | Plant response rating, Galium (galium; [4]): 0 | Plant response rating, Galium (galium; [5]): 5 | Plant response rating, Galium (galium; [6]): 20 | Galium plant response rating (galium; [7]): 0 | Galium plant response rating (galium; [8]): 0 | Plant response rating, Galium (galium; [9]): 0 | Plant response rating (scale of 0 to 100), Galium (galium; Preemergence, 250 g ai/ha): 5 | Plant response rating, Ragweed (ragweed; [3]): 0 | Plant response rating, Ragweed (ragweed; [4]): 0 | Plant response rating, Ragweed (ragweed; [5]): 10 | Plant response rating, Ragweed (ragweed; [6]): 0 | Ragweed plant response rating (ragweed; [7]): 0 | Ragweed plant response rating (ragweed; [8]): 0 | Plant response rating, Ragweed (ragweed; [9]): 0 | Plant response rating (scale of 0 to 100), Ragweed (ragweed; Preemergence, 250 g ai/ha): 0 | Plant response rating, Ryegrass, Italian (ryegrass, Italian; [3]): 0 | Plant response rating, Ryegrass, Italian (ryegrass, Italian; [4]): 0 | Plant response rating, Ryegrass, Italian (ryegrass, Italian; [5]): 0 | Plant response rating, Ryegrass, Italian (ryegrass, Italian; [6]): 0 | Ryegrass, Italian plant response rating (ryegrass, Italian; [7]): 0 | Ryegrass, Italian plant response rating (ryegrass, Italian; [8]): 0 | Plant response rating, Ryegrass, Italian (ryegrass, Italian; [9]): 0 | Plant response rating (scale of 0 to 100), Ryegrass, Italian (ryegrass, Italian; Preemergence, 250 g ai/ha): 0 | Plant response rating, Sedge, Umbrella (sedge, umbrella): 0
